# Assays:
# KCNMA1/KCNMB4 = KCNMA1/KCNMB4 (Homo sapiens, UniProt Q12791+Q86W47); assay: Inhibition of human BK alpha/beta4 channel expressed in HEK293T cells assessed as K+ outward current fraction at 10 uM at -80 mV holding potential by whole cell patch clamp method relative to control; assay type: cell-based
# [1] = molecular target: T1, Calcium-activated potassium channel subunit beta-4 (Homo sapiens, UniProt Q86W47); assay: Binding affinity to NT-495 fluorophore reagent labelled human BK beta4 (45 to 166 residues) incubated for 30 mins by microscale thermophoresis assay
# T1 sequence (Q86W47 whole entry): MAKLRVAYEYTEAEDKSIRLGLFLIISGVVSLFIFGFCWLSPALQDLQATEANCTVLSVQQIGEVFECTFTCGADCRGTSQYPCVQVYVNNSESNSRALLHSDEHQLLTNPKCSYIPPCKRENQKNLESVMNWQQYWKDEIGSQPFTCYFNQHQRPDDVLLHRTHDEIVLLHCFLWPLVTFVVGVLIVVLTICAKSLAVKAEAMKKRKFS
compound,measurement,setting,value
CC[C@H](C)[C@H](NC(=O)[C@H](CC(C)C)NC(=O)CNC(=O)[C@H](Cc1ccccc1)NC(=O)[C@H](CO)NC(=O)CN)C(=O)N[C@@H](CC(=O)O)C(=O)N[C@H](C(=O)N[C@@H](CCCCN)C(=O)N[C@H]1CSSC[C@@H]2NC(=O)[C@H](CCCCN)NC(=O)CNC(=O)[C@H](CCC(N)=O)NC(=O)CNC(=O)[C@H](CO)NC(=O)CNC(=O)[C@H]([C@@H](C)O)NC(=O)[C@H](C(C)C)NC(=O)[C@H](CCCCN)NC(=O)[C@H](CCCCN)NC(=O)[C@@H]3CSSC[C@@H](C(=O)N[C@@H](Cc4ccc(O)cc4)C(=O)O)N[C@@H](CCCNC(=N)N)C(=O)[C@H](CSSC[C@H](NC(=O)[C@H](CCC(=O)O)NC(=O)[C@H](CO)NC(=O)[C@H](CO)NC(=O)[C@H](C)NC(=O)[C@H](Cc4ccccc4)NC1=O)C(=O)N[C@@H](Cc1c[nH]c4ccccc14)C(=O)N[C@@H](C(C)C)C(=O)N[C@@H](C)C(=O)N3)N[C@@H](CCC(N)=O)C(=O)NC(=O)[C@H](CC(N)=O)NC(=O)[C@H](CC(N)=O)NC(=O)[C@H](CCC(N)=O)NC2=O)C(C)C,Ratio,KCNMA1/KCNMB4,0.36
same,Kd,[1]; read-out: Kd,550 µM
CC[C@H](C)[C@H](NC(=O)[C@H](CC(C)C)NC(=O)CNC(=O)[C@H](Cc1ccccc1)NC(=O)[C@H](CO)NC(=O)CN)C(=O)N[C@@H](CCCCN)C(=O)N[C@H](C(=O)N[C@@H](CCCCN)C(=O)N[C@H]1CSSC[C@@H]2NC(=O)[C@H](CCCCN)NC(=O)CNC(=O)[C@H](CCC(N)=O)NC(=O)CNC(=O)[C@H](CO)NC(=O)CNC(=O)[C@H]([C@@H](C)O)NC(=O)[C@H](C(C)C)NC(=O)[C@H](CCCCN)NC(=O)[C@H](CCCCN)NC(=O)[C@@H]3CSSC[C@@H](C(=O)N[C@@H](Cc4ccc(O)cc4)C(=O)O)N[C@@H](CCCNC(=N)N)C(=O)[C@H](CSSC[C@H](NC(=O)[C@H](CCCCN)NC(=O)[C@H](CO)NC(=O)[C@H](CO)NC(=O)[C@H](C)NC(=O)[C@H](Cc4ccccc4)NC1=O)C(=O)N[C@@H](Cc1c[nH]c4ccccc14)C(=O)N[C@@H]([C@@H](C)O)C(=O)N[C@@H](C)C(=O)N3)N[C@@H](CCC(N)=O)C(=O)NC(=O)[C@H](CC(N)=O)NC(=O)[C@H](CC(N)=O)NC(=O)[C@H](CCC(N)=O)NC2=O)C(C)C,Ratio,KCNMA1/KCNMB4,0.56
same,Kd,[1]; read-out: Kd,1100 µM
CC[C@H](C)[C@H](NC(=O)[C@H](CC(C)C)NC(=O)CNC(=O)[C@H](Cc1ccccc1)NC(=O)[C@H](CO)NC(=O)CN)C(=O)N[C@@H](CC(=O)O)C(=O)N[C@H](C(=O)N[C@@H](CCCCN)C(=O)N[C@H]1CSSC[C@@H]2NC(=O)[C@H](CCC(=O)O)NC(=O)CNC(=O)[C@H](CCC(N)=O)NC(=O)CNC(=O)[C@H](CO)NC(=O)CNC(=O)[C@H]([C@@H](C)O)NC(=O)[C@H](C(C)C)NC(=O)[C@H](CCCCN)NC(=O)[C@H](CCCCN)NC(=O)[C@@H]3CSSC[C@@H](C(=O)N[C@@H](Cc4ccc(O)cc4)C(=O)O)N[C@@H](CC(=O)O)C(=O)[C@H](CSSC[C@H](NC(=O)[C@H](CCC(=O)O)NC(=O)[C@H](CO)NC(=O)[C@H](CO)NC(=O)[C@H](C)NC(=O)[C@H](Cc4ccccc4)NC1=O)C(=O)N[C@@H](Cc1c[nH]c4ccccc14)C(=O)N[C@@H]([C@@H](C)O)C(=O)N[C@@H](C)C(=O)N3)N[C@@H](CCC(N)=O)C(=O)NC(=O)[C@H](CC(N)=O)NC(=O)[C@H](CC(N)=O)NC(=O)[C@H](CCC(N)=O)NC2=O)C(C)C,Ratio,KCNMA1/KCNMB4,0.8
same,Kd,[1],Not Active
CC[C@H](C)[C@H](NC(=O)[C@H](CC(C)C)NC(=O)CNC(=O)[C@H](Cc1ccccc1)NC(=O)[C@H](CO)NC(=O)CN)C(=O)N[C@@H](CC(=O)O)C(=O)N[C@H](C(=O)N[C@@H](CCCCN)C(=O)N[C@H]1CSSC[C@@H]2NC(=O)[C@H](CCCCN)NC(=O)CNC(=O)[C@H](CCC(N)=O)NC(=O)CNC(=O)[C@H](C)NC(=O)CNC(=O)[C@H]([C@@H](C)O)NC(=O)[C@H](C(C)C)NC(=O)[C@H](CCCCN)NC(=O)[C@H](CCCCN)NC(=O)[C@@H]3CSSC[C@@H](C(=O)N[C@@H](Cc4ccc(O)cc4)C(=O)O)N[C@@H](CCCNC(=N)N)C(=O)[C@H](CSSC[C@H](NC(=O)[C@H](CCC(=O)O)NC(=O)[C@H](CO)NC(=O)[C@H](CO)NC(=O)[C@H](C)NC(=O)[C@H](Cc4ccccc4)NC1=O)C(=O)N[C@@H](Cc1c[nH]c4ccccc14)C(=O)N[C@@H]([C@@H](C)O)C(=O)N[C@@H](C)C(=O)N3)N[C@@H](CCC(N)=O)C(=O)NC(=O)[C@H](CC(N)=O)NC(=O)[C@H](CC(N)=O)NC(=O)[C@H](CCC(N)=O)NC2=O)C(C)C,Ratio,KCNMA1/KCNMB4,0.75
same,Kd,[1]; read-out: Kd,109000 µM

# Reference: ChEMBL document CHEMBL4354835, “Selective Blockade of Neuronal BK (α + β4) Channels Preventing Epileptic Seizure” (J Med Chem, 2020)
